# Source: ChEMBL document CHEMBL1159056, “Antitumor agents. 271: total synthesis and evaluation of brazilein and analogs as anti-inflammatory and cytotoxic agents” (Bioorg Med Chem Lett, 2010)
# Assays:
# [1] = Antiinflammatory activity in human neutrophils assessed as inhibition of fMLP/cytochalasin B-induced superoxide anion generation at 10 ug/mL; type: functional; details: Neutrophil
# [2] = Antiinflammatory activity in human neutrophils assessed as inhibition of fMLP/cytochalasin B-induced elastase release at 10 ug/mL; type: functional; details: Neutrophil
# [3] = Antiinflammatory activity in human neutrophils assessed as inhibition of fMLP/cytochalasin B-induced superoxide anion generation; type: functional, cell-based; details: Neutrophil
# A549 = experiment: Cytotoxicity against human A549 cells; type: functional, cell-based
# [4] = Antiinflammatory activity in human neutrophils assessed as inhibition of fMLP/cytochalasin B-induced elastase release; type: functional, cell-based; details: Neutrophil
# DU-145 = experiment: Cytotoxicity against human DU145 cells; type: functional, cell-based
# KB = experiment: Cytotoxicity against human KB cells; type: functional, cell-based
# [5] = Cytotoxicity against human KBVIN cells; type: functional, cell-based
# [6] = Cytotoxicity against human Hep3B cells; type: functional, cell-based, Hep 3B2
# MCF7 = experiment: Cytotoxicity against human MCF7 cells; type: functional, cell-based
# HepG2 = experiment: Cytotoxicity against human HepG2 cells; type: functional, cell-based
# MDA-MB-231 = experiment: Cytotoxicity against human MDA-MB-231 cells; type: functional, cell-based
# Ca9-22 = experiment: Cytotoxicity against human Ca9-22 cells; type: functional, cell-based
smiles,measurement,setting,value
COC1=CC2=C3c4ccc(OC)cc4OCC3(O)CC2=CC1=O (stereo not given),inhibition at 10 µg/mL,[1],18.6%
same,inhibition at 10 µg/mL,[2],26.8%
COC1=CC2=C3c4ccc(OC)cc4OCC3(OC)CC2=CC1=O (stereo not given),IC50,[3],4.65 µM
same,IC50,A549,> 20 µM
same,IC50,[4],13.6 µM
same,IC50,DU-145,17.5 µM
same,IC50,KB,15.2 µM
same,IC50,[5],16.9 µM
O=C1C=C2CC3(O)COc4cc(OCc5ccccc5)ccc4C3=C2C=C1OCc1ccccc1 (stereo not given),inhibition at 10 µg/mL,[1],33.4%
same,IC50,[4],8.76 µM
O=C1C=C2CC3(OC(=O)c4ccccc4)COc4cc(OC(=O)c5ccccc5)ccc4C3=C2C=C1OC(=O)c1ccccc1 (stereo not given),inhibition at 10 µg/mL,[1],14.1%
same,IC50,[4],13.2 µM
COc1ccc2c(c1)OCC1(OC1c1ccc(OC)c(OC)c1)C2=O (stereo not given),IC50,[3],1.9 µM
same,IC50,A549,> 20 µM
same,IC50,DU-145,10.6 µM
same,IC50,KB,9.8 µM
same,IC50,[5],6.4 µM
same,inhibition at 10 µg/mL,[2],43.7%
CC(C)=CCOC1=CC2=C3c4ccc(OCC=C(C)C)cc4OCC3(O)CC2=CC1=O (stereo not given),IC50,[3],19.7 µM
same,IC50,[4],10.1 µM
COc1ccc2c(c1)OCC(O)(Cc1ccc(OC)c(OC)c1)C2O (stereo not given),IC50,[3],8.38 µM
same,IC50,A549,> 20 µM
same,IC50,[4],10.2 µM
same,IC50,DU-145,> 20 µM
same,IC50,KB,> 20 µM
same,IC50,[5],> 20 µM
COc1ccc2c(c1)OC/C(=C\c1ccc(OC)c(OC)c1)C2=O,IC50,A549,> 20 µM
same,IC50,DU-145,> 20 µM
same,IC50,KB,> 20 µM
same,IC50,[5],18.3 µM
C=CCOC1=CC2=C3c4ccc(OCC=C)cc4OCC3(OCC=C)CC2=CC1=O (stereo not given),IC50,[3],16.2 µM
same,IC50,[4],11.8 µM
CN(C)C(=O)OC1=CC2=C3c4ccc(OC(=O)N(C)C)cc4OCC3(O)CC2=CC1=O (stereo not given),inhibition at 10 µg/mL,[1],16.4%
same,inhibition at 10 µg/mL,[2],11.4%
C=CCOC1=CC2=C3c4ccc(OCC=C)cc4OCC3(O)CC2=CC1=O (stereo not given),IC50,[3],19.7 µM
same,IC50,A549,9.4 µM
same,IC50,[4],16.5 µM
same,IC50,DU-145,9.1 µM
same,IC50,KB,5.4 µM
CCOC1=CC2=C3c4ccc(OCC)cc4OCC3(O)CC2=CC1=O (stereo not given),IC50,[3],4.35 µM
same,IC50,A549,15.3 µM
same,IC50,[4],8.37 µM
same,IC50,DU-145,11 µM
same,IC50,KB,11.3 µM
same,IC50,[5],16.5 µM
CCC(=O)OC1=CC2=C3c4ccc(OC(=O)CC)cc4OCC3(O)CC2=CC1=O (stereo not given),IC50,[3],1.65 µM
same,IC50,A549,7.8 µM
same,IC50,[4],3.28 µM
same,IC50,DU-145,7.1 µM
same,IC50,KB,7.7 µM
CCN(CC)C(=O)OC1=CC2=C3c4ccc(OC(=O)N(CC)CC)cc4OCC3(O)CC2=CC1=O (stereo not given),inhibition at 10 µg/mL,[1],-7%
same,IC50,[4],15.5 µM
Oc1ccc2c(c1)OC[C@]1(O)Cc3cc(O)c(O)cc3[C@H]21 [BRAZILIN],IC50,[3],4.6 µM
same,IC50,A549,15.6 µg/mL
same,IC50,[6],4.54 µg/mL
same,IC50,MCF7,6.29 µg/mL
same,IC50,[4],16.7 µM
same,IC50,HepG2,3.47 µg/mL
same,IC50,MDA-MB-231,3.09 µg/mL
same,IC50,Ca9-22,9.78 µg/mL
CC(=O)OC1=CC2=C3c4ccc(OC(C)=O)cc4OCC3(O)CC2=CC1=O (stereo not given),IC50,[3],18.7 µM
same,IC50,A549,8.1 µM
same,IC50,DU-145,8.2 µM
same,IC50,KB,10 µM
same,inhibition at 10 µg/mL,[2],40.9%
CCOC1=CC2=C3c4ccc(OCC)cc4OCC3(OCC)CC2=CC1=O (stereo not given),IC50,[3],23.9 µM
same,IC50,A549,> 20 µM
same,IC50,DU-145,18.1 µM
same,IC50,KB,18.9 µM
same,IC50,[5],17.9 µM
same,inhibition at 10 µg/mL,[2],35.5%
c1ccc2c(c1)[I+]c1ccccc1-2 [DIPHENYLENEIODONIUM],IC50,[3],0.7 µM
COc1ccc2c(c1)OCC1(O)Cc3cc(OC)c(OC)cc3C21 (stereo not given),IC50,[3],4.52 µM
same,IC50,A549,> 20 µM
same,IC50,DU-145,13.8 µM
same,IC50,KB,10.5 µM
same,IC50,[5],7.6 µM
same,inhibition at 10 µg/mL,[2],35.8%
O=C1C=C2CC3(O)COc4cc(O)ccc4C3=C2C=C1O (stereo not given) [BRAZILEIN],IC50,[3],4 µM
same,IC50,A549,9.68 µg/mL
same,IC50,[6],3.42 µg/mL
same,IC50,MCF7,3.96 µg/mL
same,IC50,[4],14.2 µM
same,IC50,HepG2,3.15 µg/mL
same,IC50,MDA-MB-231,2.36 µg/mL
same,IC50,Ca9-22,8.63 µg/mL
COc1cccc2c1C(=O)c1c(O)c3c(c(O)c1C2=O)C[C@@](O)(C(=O)CO)C[C@@H]3O[C@H]1C[C@H](N)[C@H](O)[C@H](C)O1 [DOXORUBICIN],IC50,A549,0.32 µg/mL
same,IC50,[6],0.56 µg/mL
same,IC50,MCF7,0.42 µg/mL
same,IC50,HepG2,0.34 µg/mL
same,IC50,MDA-MB-231,1.05 µg/mL
CCC(=O)OC1=CC2=C3c4ccc(OC(=O)CC)cc4OCC3(OC(=O)CC)CC2=CC1=O (stereo not given),IC50,[3],1.2 µM
same,IC50,A549,13.5 µM
same,IC50,[4],1.9 µM
same,IC50,DU-145,11 µM
same,IC50,KB,6.6 µM
same,IC50,[5],11.3 µM
CC(=O)O[C@H]1C(=O)[C@@]2(C)[C@H]([C@H](OC(=O)c3ccccc3)[C@]3(O)C[C@H](OC(=O)[C@H](O)[C@@H](NC(=O)c4ccccc4)c4ccccc4)C(C)=C1C3(C)C)[C@]1(OC(C)=O)CO[C@@H]1C[C@@H]2O [PACLITAXEL],IC50,A549,0.00193 µM
same,IC50,KB,0.00155 µM
same,IC50,[5],0.00109 µM
